Key:
[1] = molecular target: T1, human recombinant serotonin 5-HT2A receptor (Homo sapiens, UniProt P28223); test: Binding affinity for serotonin 5-HT2A receptor ([3H]Ketanserin); conditions: CHO-K1 expressed receptor, 1 nM [3H]Ketanserin
T1 construct: purchased PerkinElmer Life and Analytical Sciences, USA; host or cells: CHO-K1
Description: Receptor binding affinities of the compounds for serotonin receptors were measured by the method described in the literature [Park W K et al., Pharmacol Biochem Behav. 2005, 82(2), 361-372].
For serotonin 5-HT2A binding, an aliquot of human recombinant serotonin 5-HT2A receptor (PerkinElmer Life and Analytical Sciences, USA) expressed in CHO-K1 cells (5 ug/well) and 1 nM [^3H]Ketanserin (PerkinElmer) were used in the presence of mianserin (20 uM) as nonspecific. The reaction mixture was incubated for 60 min at 27 using 50 mM Tris-HCl (pH 7.4) buffer containing 4 mM CaCl2 and 0.1% ascorbic acid, and harvested through filtermate A glass fiber filter (Wallac, Finland) presoaked in 0.5% polyethyleneimine (PEI) by microbeta filtermate-96 harvester (PerkinElmer) to terminate the reaction, and then washed with ice cold 50 mM Tris-HCl buffer solution (pH 7.4). The filter was then covered with MeltiLex, sealed in a sample bag, dried in an oven. The radioactivity retained in the filter was finally counted using MicroBeta Plus (Wallac).
(§1) The binding affinity (IC50) of a compound for the receptor was calculated by computerized nonlinear regression analysis (GraphPad Prism Program, San Diego, USA) using 7-8 varied concentrations of the compound run in duplicate tubes.

[2] = molecular target: T2, human recombinant 5-HT2C receptor (Homo sapiens, UniProt P28335); test: Binding affinity for serotonin 5-HT2C receptor ([3H]Mesulergine); conditions: CHO-K1 membranes, 1.3 nM [3H]Mesulergine
T2 construct: purchased PerkinElmer
T2 sequence (P28335 33-458): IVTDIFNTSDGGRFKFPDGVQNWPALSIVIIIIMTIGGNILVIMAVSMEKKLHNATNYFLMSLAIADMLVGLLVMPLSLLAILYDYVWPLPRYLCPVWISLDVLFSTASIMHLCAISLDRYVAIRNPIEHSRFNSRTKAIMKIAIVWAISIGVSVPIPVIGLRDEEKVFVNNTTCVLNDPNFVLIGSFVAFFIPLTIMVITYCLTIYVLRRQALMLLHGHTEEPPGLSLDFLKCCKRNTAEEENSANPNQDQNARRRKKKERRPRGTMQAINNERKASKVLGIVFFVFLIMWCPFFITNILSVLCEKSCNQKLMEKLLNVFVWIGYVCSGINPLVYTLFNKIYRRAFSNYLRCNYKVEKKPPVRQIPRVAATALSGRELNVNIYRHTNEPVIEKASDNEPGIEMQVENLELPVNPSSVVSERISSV
Description: Receptor binding affinities of the compounds for serotonin receptors were measured by the method described in the literature [Park W K et al., Pharmacol Biochem Behav.
as §1
Nonspecific binding was determined using 100 uM mianserin. The incubations were performed for 60 min at 27, and these were terminated by rapid filtration through filtermate. A glass fiber filter presoaked in 0.5% PEI.

[3] = molecular target: T3, human serotonin transporter (Homo sapiens, UniProt P31645); test: Binding affinity for serotonin transporter ([3H]Imipramine); conditions: HEK-293 membranes, 2 nM [3H]Imipramine
T3 construct: purchased PerkinElmer; host or cells: HEK-293
Description: For serotonin transporter binding assays, a reaction mixture with a final volume of 0.25 ml was prepared by mixing a test compound, human serotonin transporter membrane expressed in HEK-293 cells (PerkinElmer, 5 ug/well), [^3H]Imipramine (PerkinElmer, 2 nM) and 50 mM Tris-HCl (pH 7.4) buffer containing 120 mM NaCl and 5 mM KCl. The reaction mixture was incubated for 30 min at 27, and harvested through filtermate. A glass fiber filter presoaked in 0.5% PEI with ice cold 50 mM Tris-HCl buffer (pH 7.4) containing 0.9% NaCl.

T3 sequence (P31645 whole entry): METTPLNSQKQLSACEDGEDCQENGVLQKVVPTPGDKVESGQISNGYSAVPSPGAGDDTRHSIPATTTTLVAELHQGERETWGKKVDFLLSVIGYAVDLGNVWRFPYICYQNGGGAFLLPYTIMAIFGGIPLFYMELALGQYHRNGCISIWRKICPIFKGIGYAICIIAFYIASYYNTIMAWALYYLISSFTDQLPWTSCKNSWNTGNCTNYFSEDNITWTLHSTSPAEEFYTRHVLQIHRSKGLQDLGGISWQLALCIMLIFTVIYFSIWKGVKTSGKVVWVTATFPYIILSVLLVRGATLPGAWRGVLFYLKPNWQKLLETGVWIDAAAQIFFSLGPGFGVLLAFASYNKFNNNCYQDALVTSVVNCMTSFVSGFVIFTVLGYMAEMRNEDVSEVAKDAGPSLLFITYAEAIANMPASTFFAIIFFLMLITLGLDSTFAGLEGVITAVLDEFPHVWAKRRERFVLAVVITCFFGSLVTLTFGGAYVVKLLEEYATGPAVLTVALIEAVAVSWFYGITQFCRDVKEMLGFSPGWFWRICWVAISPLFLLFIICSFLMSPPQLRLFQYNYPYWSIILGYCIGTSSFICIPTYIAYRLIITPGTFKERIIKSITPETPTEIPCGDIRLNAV
T1 sequence (P28223 whole entry): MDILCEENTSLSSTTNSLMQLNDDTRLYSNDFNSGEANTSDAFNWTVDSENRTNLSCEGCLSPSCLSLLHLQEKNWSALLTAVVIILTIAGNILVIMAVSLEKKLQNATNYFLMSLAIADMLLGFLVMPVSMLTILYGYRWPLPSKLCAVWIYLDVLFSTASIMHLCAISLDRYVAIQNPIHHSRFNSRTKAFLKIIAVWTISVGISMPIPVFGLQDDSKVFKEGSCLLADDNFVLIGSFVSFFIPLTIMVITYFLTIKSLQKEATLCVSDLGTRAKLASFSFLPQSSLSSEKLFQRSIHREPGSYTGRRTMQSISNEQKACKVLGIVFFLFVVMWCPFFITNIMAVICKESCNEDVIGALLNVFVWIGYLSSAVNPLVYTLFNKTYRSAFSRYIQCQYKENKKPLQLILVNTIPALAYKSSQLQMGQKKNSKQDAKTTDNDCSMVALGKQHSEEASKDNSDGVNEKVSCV

Molecule Cc1c(C(=O)NCCCN2CCN(c3cccc(Cl)c3)CC2)cc(-c2ccccc2)n1C [Example 1, N-(3-(4-(3-chlorophenyl)piperazin-1-yl)propyl)-1,2-dimethyl-5-phenyl-1H-pyrrole-3-carboxamide] has an IC50 [1] of 92 nM, an IC50 [2] of 160 nM and an IC50 [3] of 11.1 nM.

Work on Cc1cccc(N2CCN(CCCNC(=O)c3cc(-c4ccccc4)n(C)c3C)CC2)c1C [Example 3, N-(3-(4-(2,3-dimethylphenyl)piperazin-1-yl)propyl)-1,2-dimethyl-5-phenyl-1H-pyrrole-3-carboxamide] yielded an IC50 [1] of 57 nM, an IC50 [2] of 133 nM and an IC50 [3] of 11.8 nM.

Work on CCn1c(-c2ccccc2)cc(C(=O)NCCCN2CCN(c3cccc(Cl)c3)CC2)c1C [Example 4, N-(3-(4-(3-chlorophenyl)piperazin-1-yl)propyl)-1-ethyl-2-methyl-5-phenyl-1H-pyrrole-3-carboxamide] yielded an IC50 [1] of 92 nM, an IC50 [2] of 192 nM and an IC50 [3] of 25.8 nM.

With CCn1c(-c2ccccc2)cc(C(=O)NCCCN2CCN(c3cccc(C)c3C)CC2)c1C [Example 5, N-(3-(4-(2,3-dimethylphenyl)piperazin-1-yl)propyl)-1-ethyl-2-methyl-5-phenyl-1H-pyrrole-3-carboxamide] the IC50 [1] was 75 nM, the IC50 [2] was 139 nM and the IC50 [3] was 35.9 nM.

With CCCn1c(-c2ccccc2)cc(C(=O)NCCCN2CCN(c3cccc(Cl)c3)CC2)c1C [Example 6, N-(3-(4-(3-chlorophenyl)piperazin-1-yl)propyl)-2-methyl-5-phenyl-1-propyl-1H-pyrrole-3-carboxamide] the IC50 [1] was 191 nM, the IC50 [2] was 273 nM and the IC50 [3] was 93 nM.

Cc1c(C(=O)NCCCN2CCN(c3cccc(Cl)c3Cl)CC2)cc(-c2ccccc2)n1C [Example 10, N-(3-(4-(2,3-dichlorophenyl)piperazin-1-yl)propyl)-1,2-dimethyl-5-phenyl-1H-pyrrole-3-carboxamide] was tested, and the IC50 [1] was 46.2 nM, the IC50 [2] was 12 nM and the IC50 [3] was 61.7 nM.

Molecule CCn1c(-c2ccccc2)cc(C(=O)NCCCN2CCN(c3cccc(Cl)c3Cl)CC2)c1C [Example 11, N-(3-(4-(2,3-dichlorophenyl)piperazin-1-yl)propyl)-1-ethyl-2-methyl-5-phenyl-1H-pyrrole-3-carboxamide] has an IC50 [1] of 376 nM, an IC50 [2] of 66 nM and an IC50 [3] of 182 nM.

CCCn1c(-c2ccccc2)cc(C(=O)NCCCN2CCN(c3cccc(Cl)c3Cl)CC2)c1C [Example 12, N-(3-(4-(2,3-dichlorophenyl)piperazin-1-yl)propyl)-2-methyl-5-phenyl-1-propyl-1H-pyrrole-3-carboxamide] gave an IC50 [1] of 324 nM, an IC50 [2] of 628 nM and an IC50 [3] of 420 nM.

With Cc1c(C(=O)NCCCN2CCN(c3cccc(Cl)c3Cl)CC2)cc(-c2ccccc2)n1N1CCCCC1 [Example 13, N-(3-(4-(2,3-dichlorophenyl)piperazin-1-yl)propyl)-2-methyl-5-phenyl-1-(piperidin-1-yl)-1H-pyrrole-3-carboxamide] the IC50 [1] was 67.1 nM, the IC50 [2] was 795 nM and the IC50 [3] was 298 nM.

In the case of Cc1c(C(=O)NCCCN2CCN(c3cccc(Cl)c3)CC2)cc(-c2ccccc2)n1-c1ccc(F)cc1 [Example 14, N-(3-(4-(3-chlorophenyl)piperazin-1-yl)propyl)-1-(4-fluorophenyl)-2-methyl-5-phenyl-1H-pyrrole-3-carboxamide], the IC50 [1] is reported as 22.9 nM, the IC50 [2] is reported as 443 nM and the IC50 [3] is reported as 80.2 nM.

Work on Cc1cccc(N2CCN(CCCNC(=O)c3cc(-c4ccccc4)n(-c4ccc(F)cc4)c3C)CC2)c1C [Example 15, N-(3-(4-(2,3-dimethylphenyl)piperazin-1-yl)propyl)-1-(4-fluorophenyl)-2-methyl-5-phenyl-1H-pyrrole-3-carboxamide] yielded an IC50 [1] of 6.9 nM, an IC50 [2] of 162 nM and an IC50 [3] of 53.6 nM.

Work on Cc1c(C(=O)NCCCN2CCN(c3cccc(Cl)c3Cl)CC2)cc(-c2ccccc2)n1-c1ccc(F)cc1 [Example 16, N-(3-(4-(2,3-dichlorophenyl)piperazin-1-yl)propyl)-1-(4-fluorophenyl)-2-methyl-5-phenyl-1H-pyrrole-3-carboxamide] yielded an IC50 [1] of 4.1 nM, an IC50 [2] of 466 nM and an IC50 [3] of 266 nM.

Cc1cccc(N2CCN(CCCNC(=O)c3cc(-c4ccccc4)n(Cc4ccccc4)c3C)CC2)c1C [Example 18, 1-Benzyl-N-(3-(4-(2,3-dimethylphenyl)piperazin-1-yl)propyl)-2-methyl-5-phenyl-1H-pyrrole-3-carboxamide] was tested, and the IC50 [1] was 224 nM, the IC50 [2] was 297 nM and the IC50 [3] was 14.3 nM.

In the case of Cc1c(C(=O)NCCCN2CCN(c3cccc(Cl)c3Cl)CC2)cc(-c2ccccc2)n1Cc1ccccc1 [Example 19, 1-Benzyl-N-(3-(4-(2,3-dichlorophenyl)piperazin-1-yl)propyl)-2-methyl-5-phenyl-1H-pyrrole-3-carboxamide], the IC50 [1] is reported as 354 nM, the IC50 [2] is reported as 220 nM and the IC50 [3] is reported as 125 nM.

Molecule Cc1c(C(=O)NCCCN2CCN(c3cccc(Cl)c3)CC2)cc(-c2ccccc2)n1CC1CCCCC1 [Example 20, N-(3-(4-(3-chlorophenyl)piperazin-1-yl)propyl)-1-(cyclohexylmethyl)-2-methyl-5-phenyl-1H-pyrrole-3-carboxamide] has an IC50 [1] of 1070 nM, an IC50 [2] of 611 nM and an IC50 [3] of 213 nM.

Cc1c(C(=O)NCCN2CCN(c3cccc(Cl)c3Cl)CC2)cc(C(C)(C)C)n1C [Example 169, 5-tert-butyl-N-(2-(4-(2,3-dichlorophenyl)piperazin-1-yl)ethyl)-1,2-dimethyl-1H-pyrrole-3-carboxamide] gave an IC50 [1] of 57 nM.

For Cc1c(Cl)cccc1N1CCN(CCNC(=O)c2cc(-c3ccccc3)n(C)c2C)CC1 [Example 184, N-(2-(4-(3-chloro-2-methylphenyl)piperazin-1-yl)ethyl)-1,2-dimethyl-5-phenyl-1H-pyrrole-3-carboxamide], the IC50 [1] was 152 nM and the IC50 [2] was 233 nM.

For Cc1ccc2cccc(N3CCN(CCNC(=O)c4cc(-c5ccccc5)n(C)c4C)CC3)c2n1 [Example 185, 1,2-dimethyl-N-(2-(4-(2-methylquinolin-8-yl)piperazin-1-yl)ethyl)-5-phenyl-1H-pyrrole-3-carboxamide], the IC50 [1] was 761 nM and the IC50 [2] was 554 nM.

Cc1c(C(=O)NCCN2CCN(c3cccc(Cl)c3F)CC2)cc(C(C)(C)C)n1C [Example 186, 5-tert-butyl-N-(2-(4-(3-chloro-2-fluorophenyl)piperazin-1-yl)ethyl)-1,2-dimethyl-1H-pyrrole-3-carboxamide] gave an IC50 [1] of 121 nM and an IC50 [2] of 293 nM.

Cc1c(Cl)cccc1N1CCN(CCNC(=O)c2cc(C(C)(C)C)n(C)c2C)CC1 [Example 187, 5-tert-butyl-N-(2-(4-(3-chloro-2-methylphenyl)piperazin-1-yl)ethyl)-1,2-dimethyl-1H-pyrrole-3-carboxamide] gave an IC50 [1] of 54 nM and an IC50 [2] of 210 nM.

With Cc1ccc2cccc(N3CCN(CCNC(=O)c4cc(C(C)(C)C)n(C)c4C)CC3)c2n1 [Example 188, 5-tert-butyl-1,2-dimethyl-N-(2-(4-(2-methylquinolin-8-yl)piperazin-1-yl)ethyl)-1H-pyrrole-3-carboxamide] the IC50 [1] was 1480 nM and the IC50 [2] was 1500 nM.

Cc1cccc(N2CCN(CCNC(=O)c3cc(C(C)(C)C)n(C)c3C)CC2)c1C [Example 189, 5-tert-butyl-N-(2-(4-(2,3-dimethylphenyl)piperazin-1-yl)ethyl)-1,2-dimethyl-1H-pyrrole-3-carboxamide] was tested, and the IC50 [2] was 227 nM.

Work on CCn1c(C(C)(C)C)cc(C(=O)NCCCN2CCN(c3cccc(C)c3C)CC2)c1C [Example 190, 5-tert-butyl-N-(3-(4-(2,3-dimethylphenyl)piperazin-1-yl)propyl)-1-ethyl-2-methyl-1H-pyrrole-3-carboxamide] yielded an IC50 [1] of 386 nM and an IC50 [2] of 1140 nM.

From patent US8895558B2, “Arylpiperazine-containing pyrrole 3-carboxamide derivatives for treating depressive disorders” (Green Cross Corporation, priority 2008, dated 2014)
